{
  "source": "patent US8193235B2",
  "about": "“Compositions and methods for establishing and maintaining stem cells in an undifferentiated state” (University of Kansas, priority 2009, dated 2012)",
  "key": {"129/Sv blastocysts": {"tested_on": "129/Sv blastocysts", "test": "De novo derivation of new ES cells from blastocysts", "format": "cell-based, mouse", "protocol": "De Novo Derivation of New ES Cells With Gö6983. Blastocysts from 6-week-old female 12952/SvPasCrl (129/Sv) strain mice (Charles River Laboratory, Wilmington, Mass.) were isolated at 3.5 day post-coitum. Isolated blasotocysts were plated on gelatin-coated plastic in medium containing Gö6983 and FBS and without LIF. To obtain ES cell colonies, blastocyst outgrowths were disaggregated with trypsin and replated on gelatin-coated wells with Gö6983 and FBS. ES cell colonies were expanded by replating with Gö6983 at clonal or higher density. For in vitro analysis, cells were differentiated following the same protocol described herein. After six passages with Gö6983-condition, chromosome numbers were checked by karyotyping, and injected in C57BL/6 blastocysts for chimera generation."}, "ERK1/2": {"tested_on": "ERK1/2", "test": "ERK1/2 phosphorylation in ES cells", "format": "cell-based, mouse", "conditions": "Gö6983 alone", "protocol": "(§1) E14 ES Cell Cultures. Cells were grown in ES-IMDM media (Lonza, Walkersville, Md.) in a feeder-free condition. ES-IMDM was supplemented with 15% serum, 10^5 U/100 ml of LIF (ESGRO, Millipore, Calif.) and 0.0124% monothioglycerol (MTG; Sigma Aldrich). Cells were grown for 3-5 days with change of medium every day. For inducing differentiation in monolayer culture and to determine the effect of Gö6983 in preventing differentiation, E14 cells were cultured on gelatin-coated plastics for 8 days without LIF. Details of experiments performed at clonal-density are described herein. To maintain E14 cells with Gö6983, serum supplemented ES-IMDM was used in the presence of 5 μM Gö6983 and was passed after every 3-5 days. For all assays involving elucidation of different signaling mechanism responsible for maintenance of pluripotency, cells from a ˜70% confluent ES culture plate were washed two times with 1× phosphate-buffered saline (PBS), trypsinized and plated on a 6-well tissue culture plate and treated with or without LIF or Gö6983 or different inhibitors for ˜10 hours followed by preparation of protein lysates and RNA. The PKCζ knocked-down E14 cells that were generated in this study were maintained in serum supplemented ES-IMDM on gelatin-coated plates in the absence of Gö6983 or LIF or any other inhibitor and passed after 3-5 days. […]"}, "Stat3−/− ES cells": {"tested_on": "Stat3−/− ES cells", "test": "Stat3−/− ES cells in serum-free N2B27 medium", "format": "cell-based, mouse", "protocol": "Stat3^−/− ES Cells. Passage 12 Stat3^−/− ES cells were maintained on N2B27 medium with 1 μM PD0325901 and 3 μM CHIR99021 and passaged every 3-4 days. For studies involving Gö6983, around 1-2×10^4 cells were plated on 6-well plates having N2B27 medium with or without 5 μM Gö6983 and analyzed for the expression of pluripotency markers."}, "DCIS.com cells": {"tested_on": "DCIS.com cells", "test": "Mamosphere formation of breast cancer cells", "format": "cell-based", "protocol": "In addition to ES and iPS cells, it was determined whether blockade of PKC signaling facilitated the propagation of cancer stem cells. To that end, mamosphere formation of a breast cancer cell type known as DCIS.com was analyzed. Mamospheres are specialized structures formed by breast cancer cell types and are indicative of presence and propagation of breast cancer stem cells. […] Therefore, blockade of PKC signaling can be used to efficiently propagate and expand cancer stem cells."}, "c-Myc": {"tested_on": "c-Myc", "test": "GSK-3β-mediated phosphorylation of c-Myc at T58", "format": "cell-based, mouse", "conditions": "Gö6983 alone"}, "PKC ζ": {"molecular_target": "T1, PKC ζ (Mus musculus, UniProt Q02956)", "T1 construct": "endogenous in cells; host or cells: mouse ES cells (E14)", "T1 sequence (Q02956 whole entry)": "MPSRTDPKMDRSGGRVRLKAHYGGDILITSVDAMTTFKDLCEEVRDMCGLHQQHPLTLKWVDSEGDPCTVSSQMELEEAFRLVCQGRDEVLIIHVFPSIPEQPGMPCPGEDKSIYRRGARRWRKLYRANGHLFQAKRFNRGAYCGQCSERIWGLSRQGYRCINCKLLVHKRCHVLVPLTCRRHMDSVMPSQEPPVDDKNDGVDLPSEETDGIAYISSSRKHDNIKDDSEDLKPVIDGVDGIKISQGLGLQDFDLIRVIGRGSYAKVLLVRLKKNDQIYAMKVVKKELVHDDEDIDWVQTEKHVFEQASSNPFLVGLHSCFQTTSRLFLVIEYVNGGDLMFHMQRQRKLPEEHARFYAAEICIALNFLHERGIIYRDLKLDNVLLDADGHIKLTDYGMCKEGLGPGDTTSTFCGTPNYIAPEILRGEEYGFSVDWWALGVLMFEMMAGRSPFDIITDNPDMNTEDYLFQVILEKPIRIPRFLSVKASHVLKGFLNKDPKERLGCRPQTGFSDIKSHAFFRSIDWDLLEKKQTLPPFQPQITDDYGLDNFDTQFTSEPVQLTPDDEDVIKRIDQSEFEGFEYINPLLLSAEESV", "test": "Western blot analysis of p-PKC ζ in ES cells", "format": "cell-based", "protocol": "Western Blot Analysis. Whole cell lysates were prepared in SDS-gel loading buffer and resolved by 10% PAGE. The antibodies used for this study included β-actin Clone AC-15 from Sigma; p-STAT3 (Tyr705), p-p44/42 MAPK (tyr202/tyr204), p44/42 MAPK, GSK3β, Phospho Akt (Ser473), Akt, p-NFκβ p65 (Ser536), c-Myc, p-c-Myc (Thr58/Ser62), p-p90RSK (Thr359/Ser363), RSK1, Suz12 (D39F6), and Ezh2 (AC22) from Cell Signaling Technology; STAT3 (C-20), Oct-4 (C-10), Nanog (M-149), PKC α (C-20), PKC βI (C-16), PKC βII (C-18), PKC γ (C-19), PKC δ (C-20), PKC ζ (c-20), p-PKC ζ (Thr 410)-R, p-NFκβ p65 (ser311), and RelA (p65) from Santa Cruz Biotechnology; p-LGL1/LGL2 (S650/S654), SSEA4and H3K4Me3 from Abcam; LGL2 (M06), clone 4G2 from Abnova; β-Catenin from BD Transduction Laboratories, and H3K27Me3 and H3K9Me3 from Millipore."}, "[1]": {"tested_on": "human ES cells (H9 cells)", "test": "Human ES cells in feeder-free culture, MEF-conditioned medium", "format": "cell-based"}, "β-catenin": {"tested_on": "β-catenin", "test": "Cytosolic β-catenin stabilization assay", "format": "cell-based, mouse", "conditions": "mESCs", "protocol": "Cytosolic β-Catenin Stabilization Assay. ES cells were treated with Wnt3A-conditioned medium or Gö6983 or LIF for 10 hours, and lysed hypotonically on ice with 1× TE (pH 7.4) with protease inhibitors. Lysates were centrifuged at 100,000 g at 4° C. for 45 minutes to collect and analyze cytosolic fractions."}, "ES cells": {"tested_on": "ES cells", "test": "Quantitative Clonal Assay (survival at clonal density)", "format": "cell-based, mouse", "conditions": "≦10 μM", "protocol": "Quantitative Clonal Assay. ES and iPS cells were dissociated into single cells using 0.05% trypsin/EDTA and 2-20 cells were plated on each well of a 96-well culture plate. The cells were cultured for 6-7 days, colonies were stained for Nanog, and the number of Nanog positive colonies was counted. […] This procedure was repeated for five consecutive passages (>30 days)."}, "Akt": {"tested_on": "Akt", "test": "Akt phosphorylation in mESCs", "format": "cell-based, mouse", "protocol": "as §1"}, "STAT3": {"tested_on": "STAT3", "test": "STAT3 phosphorylation, Western blot", "format": "cell-based, mouse", "conditions": "E14 cells", "protocol": "as §1"}},
  "note": "“Also recorded” adds a separate entry of the source.",
  "data": [
    {"smiles": "COc1ccc2c(c1)c(C1=C(c3c[nH]c4ccccc34)C(=O)NC1=O)cn2CCCN(C)C", "note": "[Gö6983, 3-[1-[3-(dimethylamino)propyl]5-methoxy-1H-indol-3-yl]-4-(1H-indol-3-yl)-1H-pyrrole-2,5-dione]", "values": [
      {"measurement": "propagation of Gö6983-derived ES cell lines at clonal density", "setting": "129/Sv blastocysts; cultured with Gö6983", "value": "successfully propagated in an undifferentiated state"},
      {"measurement": "multilineage differentiation potential of established ES cell lines", "setting": "129/Sv blastocysts; embryoid bodies, differentiated on collagen IV", "value": "readily formed embryoid bodies and expressed lineage specific markers"},
      {"measurement": "derivation of ES cell colonies from blastocyst outgrowths", "setting": "129/Sv blastocysts; serum and Gö6983, without LIF and feeder cells, gelatin-coated plates", "value": "multiple ES cell colonies were obtained from 10 blastocysts"},
      {"measurement": "ERK1/2 phosphorylation", "setting": "ERK1/2", "value": "did not inhibit"},
      {"measurement": "differentiation of Stat3−/− ES cells", "setting": "Stat3−/− ES cells", "value": "efficiently prevented differentiation"},
      {"measurement": "mamosphere formation", "setting": "DCIS.com cells", "value": "efficiently generated mamospheres"},
      {"measurement": "GSK-3β-mediated phosphorylation of c-Myc at T58 residue", "setting": "c-Myc", "value": "did not inhibit"},
      {"measurement": "PKC ζ phosphorylation in ES cells", "setting": "PKC ζ", "value": "almost completely inhibited"},
      {"measurement": "undifferentiated morphology and SSEA4 expression of human ES cells", "setting": "[1]; MEF-conditioned medium, multiple passages", "value": "maintained their undifferentiated morphology and expression of pluripotency marker"},
      {"measurement": "SSEA4 expression in H9 colonies", "setting": "[1]; versus TeSR1 medium or conditioned medium with bFGF, FIG. 5", "value": "sustained high levels of SSEA4 expression; also recorded: comparable"},
      {"measurement": "Oct4 protein expression in human ES cells", "setting": "[1]; versus conditioned medium alone", "value": "High levels of Oct4 protein expression"},
      {"measurement": "β-catenin stabilization", "setting": "β-catenin", "value": "did not stabilize"},
      {"measurement": "loss in ES cell survival at clonal density", "setting": "ES cells", "value": "no significant loss"},
      {"measurement": "Akt phosphorylation", "setting": "Akt", "value": "not associated with Akt phosphorylation"},
      {"measurement": "STAT3 phosphorylation", "setting": "STAT3", "value": "did not induce"}
    ]}
  ]
}
